Test system: U-251 glioblastoma viability, CellTiter-Glo ATP luminescence
Test: U-251 glioblastoma cell viability loss, late-stage follow-up, mechanism study for HRAS target identification, CellTiter-Glo ATP luminescence, several timepoints, dry powder (AID 720616)

Compound | AC50 (measured here: 24 h treatment) [nM] | AC50 (measured here: 48 h treatment) [nM] | AC50 (measured here: 8 h treatment) [nM]
Cc1onc(C(=O)N2CCN(C(c3ccc(Cl)cc3)c3ccc(Cl)cc3)CC2)c1[N+](=O)[O-] | > 70000 | > 70000 | –
COc1ccc(N(C(=O)CCl)C(C(=O)NCCc2ccccc2)c2cccs2)cc1Cl (centres undefined) | 709 | 1380 | 734
COC(=O)c1ccc([C@@H]2c3[nH]c4ccccc4c3C[C@@H](C(=O)OC)N2C(=O)CCl)cc1 | 856 | 1250 | 1100
C#CCCCC(=O)NCCOCCOCCOc1ccc(N(C(=O)CCl)C(C(=O)NCCc2ccccc2)c2cccs2)cc1Cl (centres undefined) | 4090 | 10200 | 7550
CC(C)(C)OC(=O)NCCOCCOCCOc1ccc(N(C(=O)CCl)C(C(=O)NCCc2ccccc2)c2cccs2)cc1Cl (centres undefined) | 1220 | 2210 | 912
